Experimental data: PubChem BioAssay AID720512 (Broad Institute, 2013)
Active and inactive are the calls of the source. No rule for the calls is given here.

Molecular target: Toxin B (TcdB) glycohydrolase, Clostridioides difficile 630
Assay: TcdB glycohydrolase inhibitors, dose response, biochemical, cherry-pick, plate reader (AID 720512)
Conditions: recombinant TcdB glycohydrolase activity; for activity change, negative = inhibition: at 19.5 µM (top of the series)

SMILES	activity change, negative = inhibition	AC50
COc1ccc(CNC(=O)c2cc3c(s2)CN(Cc2ccccc2)C3)cc1	inactive	
O=c1[nH]c(CN2CCOCC2)nc2cc(Cl)ccc12	inactive	
CC(=O)Nc1ccc(NC(=O)Cc2ccc(S(=O)(=O)N3CCCCC3)cc2)cc1	inactive	
CCOCC(=O)Nc1cc(Cl)ccc1C	inactive	
O=C(O)c1ccc(-c2ccc(O)c(F)c2)cc1		> 39 µM (inactive)
Nc1ccc2c(c1)[nH]c(=O)c1cc(N)ccc12	inactive	
O=C(CNS(=O)(=O)c1ccc([N+](=O)[O-])cc1)N/N=C\c1ccc(O)cc1	inactive	
O=C(C[C@@H]1C[C@@H]2c3cc(NC(=O)c4ccc5c(c4)OCO5)ccc3O[C@@H]2[C@@H](CO)O1)NCc1cccc(F)c1	inactive	
Cc1onc(-c2ccccc2)c1C(=O)N/N=C/c1cn(C)c2ccccc12	inactive	
CC(C)Cc1cc(C(=O)N2CCCC(CO)(Cc3ccc(F)cc3)C2)no1 (centres undefined)	inactive	
O=C(O)c1c(C(=O)O)c(-c2ccc(Br)cc2)n2c1CSC2	inactive	
C[C@H](CO)N1C[C@H](C)[C@@H](CN(C)C(=O)Nc2ccc(C(F)(F)F)cc2)Oc2ccc(NC(=O)C3CCCCC3)cc2C1=O	inactive	
CCN1/C(=C2\OC(=S)N(C)C2=O)C=Cc2ccccc21	inactive	
CCCNC(=O)C[C@H]1CC[C@@H]2[C@@H](COc3ccc(NC(=O)c4ccc(Cl)cc4)cc3C(=O)N2C)O1		> 39 µM (inactive)
COc1ccc(/C=C\c2onc(C)c2S(=O)(=O)N2CCC(C(=O)NCc3ccco3)CC2)cc1	inactive	
O=C(Nc1ccc(O)cc1)c1ccc2c(c1)C(=O)N(Cc1ccco1)C2=O	inactive	
CNC(=O)C[C@H]1CC[C@@H]2[C@@H](COc3ccc(NC(=O)c4ccc(OC)cc4)cc3C(=O)N2C)O1	inactive	
CCS(=O)(=O)c1ccc2oc(Nc3ccc(C(C)(C)C)cc3)nc2c1	inactive	
COCC(=O)N1CC[C@H]2[C@@H]1c1cc(-c3ccc(OC)cc3)ccc1N(C)[C@H]2CO		> 39 µM (inactive)
CCN1CCN(c2oc(-c3ccccc3C)nc2S(=O)(=O)c2ccccc2)CC1	inactive	
CC(N)C(=O)NC(C(=O)N1CCCC1C(=O)NC(c1ccccc1)c1ccccc1)C(C)C (centres undefined)	inactive	
Nc1nc(Nc2ccccc2)n[nH]1	inactive	
CCCc1cc(-c2n[nH]c(C(=O)OCC)c2-c2cscn2)c(O)cc1O	inactive	
S=C(NCCc1ccccc1)Nc1ncccn1	inactive	
